The results in this text go back to ChEMBL document CHEMBL1151028, “Synthesis of -hydroxy statine through a facially selective osmylation of a chiral -amido crotonate” (Bioorg Med Chem Lett, 1995).

Where a SMILES comes first, the peptide text is derived from it. [ ]: non-standard residue; d: D form. The star is where a group is joined. Sta = CC(C)C[C@H](N)[C@@H](O)CC(=O)O; Boc = CC(C)(C)OC(=O)*; GABA = NCCCC(=O)O

The IC50 is the point on the concentration scale where inhibition reaches its midpoint. Low values mean inhibition by little substance, high ones a need for much substance.

The target of the test is T1, Renin (Homo sapiens, UniProt P00797).
T1 sequence (P00797 whole entry): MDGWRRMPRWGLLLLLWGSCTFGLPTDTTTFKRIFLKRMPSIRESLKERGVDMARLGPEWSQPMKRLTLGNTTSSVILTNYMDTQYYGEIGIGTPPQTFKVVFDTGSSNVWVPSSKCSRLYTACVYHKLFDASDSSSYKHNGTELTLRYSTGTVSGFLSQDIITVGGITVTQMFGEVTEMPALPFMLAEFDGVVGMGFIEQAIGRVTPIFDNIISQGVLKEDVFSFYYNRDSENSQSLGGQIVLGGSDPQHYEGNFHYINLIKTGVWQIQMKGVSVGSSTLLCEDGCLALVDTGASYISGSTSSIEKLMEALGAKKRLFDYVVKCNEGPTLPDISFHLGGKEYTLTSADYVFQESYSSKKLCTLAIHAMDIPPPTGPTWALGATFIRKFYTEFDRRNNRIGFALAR
The test is described as follows: Inhibitory activity against renin was determined.
In turn, `CC(C)C[C@H](NC(=O)[C@H](Cc1cnc[nH]1)NC(=O)[C@H](Cc1ccccc1)NC(=O)OC(C)(C)C)[C@H](O)[C@@H](O)C(=O)NCCCC(=O)O` had a half-inhibitory concentration (IC50) of 63 µM.

With `CC(C)C[C@H](NC(=O)[C@H](Cc1c[nH]cn1)NC(=O)[C@H](Cc1ccccc1)NC(=O)OC(C)(C)C)[C@@H](O)[C@H](O)C(=O)NCCCC(=O)O`, inhibition was half-maximal at 3 µM (IC50).

As to `CC(C)C[C@H](NC(=O)[C@H](Cc1cnc[nH]1)NC(=O)[C@H](Cc1ccccc1)NC(=O)OC(C)(C)C)[C@@H](O)CC(=O)NCCCC(=O)O` (Boc-FH[Sta][GABA]-OH), the IC50 turned out to be 3.2 µM.
